Source: patent US20070185161A1, “Bicyclic substituted indole-derivative steroid hormone nuclear receptor modulators” (priority 2004, published 2007)

system: patients suffering from advanced CHF; assay: not given; details: in combination with standard CHF therapy; cited from earlier work

Compound | reduced cardiac related mortality [%] | reduced frequency of hospitalization [%]
CC(=O)S[C@@H]1CC2=CC(=O)CC[C@]2(C)[C@H]2CC[C@@]3(C)[C@@H](CC[C@@]34CCC(=O)O4)[C@H]12 [spironolactone] | 30 | 35

molecular target: T1, human MR (Homo sapiens, UniProt P08235); assay: Mineralocorticoid Receptor Binding Assay (Method 1); details: [3H]-aldosterone, racemic mixture unless otherwise indicated
T1 construct: The full length human MR gene is cloned from a human kidney or human brain cDNA library; made in house; host or cells: SF9 insect cells (baculovirus)
T1 sequence (P08235 1-984): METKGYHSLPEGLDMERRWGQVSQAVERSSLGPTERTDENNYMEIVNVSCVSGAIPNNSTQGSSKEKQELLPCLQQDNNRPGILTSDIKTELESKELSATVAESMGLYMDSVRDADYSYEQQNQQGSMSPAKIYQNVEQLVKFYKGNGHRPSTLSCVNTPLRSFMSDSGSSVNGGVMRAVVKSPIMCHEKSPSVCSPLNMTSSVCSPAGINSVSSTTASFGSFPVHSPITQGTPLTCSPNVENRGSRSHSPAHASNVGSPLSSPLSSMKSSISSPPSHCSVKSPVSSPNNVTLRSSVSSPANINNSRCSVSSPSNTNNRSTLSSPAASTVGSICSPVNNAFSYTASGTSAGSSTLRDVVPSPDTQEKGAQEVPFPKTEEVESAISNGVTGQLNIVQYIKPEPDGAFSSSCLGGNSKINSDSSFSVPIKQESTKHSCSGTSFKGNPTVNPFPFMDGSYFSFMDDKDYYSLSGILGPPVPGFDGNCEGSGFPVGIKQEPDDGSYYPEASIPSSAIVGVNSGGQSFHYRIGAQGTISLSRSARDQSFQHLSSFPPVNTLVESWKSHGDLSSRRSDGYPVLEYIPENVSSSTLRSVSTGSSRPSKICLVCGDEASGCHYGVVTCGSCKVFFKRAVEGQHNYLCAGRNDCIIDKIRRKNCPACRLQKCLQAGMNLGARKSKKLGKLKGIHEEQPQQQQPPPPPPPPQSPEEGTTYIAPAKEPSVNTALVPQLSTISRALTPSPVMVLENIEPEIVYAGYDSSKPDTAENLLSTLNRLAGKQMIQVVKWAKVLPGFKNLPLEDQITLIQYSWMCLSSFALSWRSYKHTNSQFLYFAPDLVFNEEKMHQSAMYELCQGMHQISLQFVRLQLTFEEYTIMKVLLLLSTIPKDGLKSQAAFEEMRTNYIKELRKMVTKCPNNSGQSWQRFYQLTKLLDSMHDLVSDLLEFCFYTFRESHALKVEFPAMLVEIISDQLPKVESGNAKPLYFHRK
Method: The full length human MR gene is cloned from a human kidney or human brain cDNA library. Briefly, using synthetic oligonucleotide primers (Eli Lilly and Company, Indianapolis) directed to nucleotides 20-54 and 3700-3666 of the human MR, polymerase chain reaction (PCR) is performed under standard conditions using a human cDNA library. The PCR reaction is performed in a final volume of 50 μl containing about 1 μl of a 50× stock solution of polymerase; about 1 μl of a 50× stock solution of dNTP; about 5 μl of an appropriate PCR buffer; about 1 μl of each primer; about 5 μl of a H. kidney or H. brain cDNA library; and about 36 μl of water. The reaction is allowed to denature for about 30 seconds at 95 degrees Celsius, anneal for about 30 seconds at 55 degrees Celsius, and extend for about 5 minutes at 72 degrees Celsius, the sequence being repeated for a total of about 35 cycles. The desired PCR product (3.68 Kb) is confirmed by gel electrophoresis and subsequently cut from the gel and stored at about −20 degrees Celsius until extraction. To extract the cDNA product from the agarose gel, the QIAEX II Gel Extraction protocol (QIAGEN, Inc.) is employed according to the manufacturer's instructions. Following extraction, the MR cDNA is cloned into an appropriate cloning vector (Zero Blunt TOPO PCR Cloning Kit (Invitrogen, Inc.) and a pAcHLT-baculovirus transfer vector (B.D./Pharminogen), then expressed in SF9 insect cells, essentially according to manufacturer's instructions. Sf9 cells are grown at a scale where gram quantity cell pellets are obtained for subsequent use in the MR binding assay. Harvested cell pellets are lysed by repeated freeze-thaw cycles (about 4) in a suitable lysis buffer then centrifuged at about 1×10^3 G (with the supernatant being saved for future assays).
MR binding assays are performed in a final total volume of about 250 μl containing about 20-25 μg of protein and 0.5 nM of [^3H]-aldosterone plus varying concentrations of test compound or vehicle. The assay binding buffer consists of 30 mM sodium molybdate, 30 mM of TRIS-HCl, 5 mM sodium phosphate, 5 mM sodium pyrophosphate, and about 10% glycerol, pH=7.5.
Briefly, assays are prepared at RT in 96-well Falcon 3072 plates, each well containing 210 μl of binding buffer, 10 μl of [^3H]-aldosterone, 10 μl of test compound/vehicle, and 20 μl of the resuspended receptor protein extract. Incubations are carried out at 4 degrees Celsius with shaking for about 16 hours. 200 μl aliquots of each incubation are filtered onto Millipore HA 0.45 micron 96-well filter plates, pre-moistened with cold 30 mM TRIS-HCl. The filter plates are suctioned dry with vacuum and immediately washed 3× with cold 30 mM TRIS-HCl. The plates are then punched out and the amount of receptor-ligand complex is determined by liquid scintillation counting using 4 ml of Ready Protein Plus™ liquid scintillation cocktail.
IC50 values (defined as the concentration of test compound required to decrease [^3H]-aldosterone binding by 50%) are then determined. Ki values for each respective test compound can then be calculated by application of the Cheng-Prusoff equation as described in Cheng et al., Relationship Between The Inhibition Constant (Ki) and The Concentration of Inhibitor Which Causes 50% Inhibition (IC50) of an Enzymatic Reaction, Biochem. Pharmacol., 22: 3099-31088; (1973).

Compound | Ki [nM]
CC1(c2c[nH]c3c(NS(C)(=O)=O)cccc23)CCCc2cc(F)cc(F)c21 (racemic) [Example 30, N-[3-(6,8-Difluoro-1-methyl-1,2,3,4-tetrahydro-naphthalen-1-yl)-1H-indol-7-yl]-methanesulfonamide] | ≤ 500
CC1(c2c[nH]c3c(NS(C)(=O)=O)cccc23)CCCc2cc(F)cc(F)c21 (single isomer, unassigned) [Example 30A, N-[3-(6,8-Difluoro-1-methyl-1,2,3,4-tetrahydro-naphthalen-1-yl)-1H-indol-7-yl]-methanesulfonamide] | ≤ 500
CC1(c2c[nH]c3c(NS(C)(=O)=O)cccc23)CCCc2cc(F)cc(F)c21 (single isomer, unassigned) [Example 30B, N-[3-(6,8-Difluoro-1-methyl-1,2,3,4-tetrahydro-naphthalen-1-yl)-1H-indol-7-yl]-methanesulfonamide] | ≤ 500
CCC1(c2c[nH]c3c(NS(C)(=O)=O)cccc23)CCCc2cc(F)cc(F)c21 (single isomer, unassigned) [Example 31A, N-[3-(1-Ethyl-6,8-difluoro-1,2,3,4-tetrahydro-naphthalen-1-yl)-1H-indol-7-yl]-methanesulfonamide] | ≤ 500
CCC1(c2c[nH]c3c(NS(C)(=O)=O)cccc23)CCCc2cc(F)cc(F)c21 (single isomer, unassigned) [Example 31B, N-[3-(1-Ethyl-6,8-difluoro-1,2,3,4-tetrahydro-naphthalen-1-yl)-1H-indol-7-yl]-methanesulfonamide] | ≤ 500
CCC1(c2c[nH]c3ccccc23)CCc2cc(F)ccc21 (centres unmarked) [Example 6, 3-(1-Ethyl-5-fluoro-indan-1-yl)-1H-indole] | ≤ 500
CCC1(c2c[nH]c3c(F)cccc23)CCc2cc(F)ccc21 (centres unmarked) [Example 7, 3-(1-Ethyl-5-fluoro-indan-1-yl)-7-fluoro-1H-indole] | ≤ 500
CCC1(c2c[nH]c3c(Br)cccc23)CCc2cc(F)ccc21 (centres unmarked) [Example 8, 7-Bromo-3-(1-ethyl-5-fluoro-indan-1-yl)-1H-indole] | ≤ 500
CCC1(c2c[nH]c3c(Cl)cccc23)CCc2cc(F)ccc21 (centres unmarked) [Example 9, 7-Chloro-3-(1-ethyl-5-fluoro-indan-1-yl)-1H-indole] | ≤ 500
CCc1cccc2c(C3(CC)CCc4cc(F)ccc43)c[nH]c12 (centres unmarked) [Example 10, 7-Ethyl-3-(1-ethyl-5-fluoro-indan-1-yl)-1H-indole] | ≤ 1000
CCC1(c2c[nH]c3c(OC)cccc23)CCc2cc(F)ccc21 (centres unmarked) [Example 12, 3-(1-Ethyl-5-fluoro-indan-1-yl)-7-methoxy-1H-indole] | ≤ 500

molecular target: T2, human GR (glucocorticoid receptor) (Homo sapiens, UniProt P04150); assay: Alternative Binding Assay Protocol (Method 2), GR; details: 3H-dexamethasone, 293-GR lysate, racemic mixture unless otherwise indicated
T2 construct: expressed in transfected cells; host or cells: 293 cells
T2 sequence (P04150 1-777): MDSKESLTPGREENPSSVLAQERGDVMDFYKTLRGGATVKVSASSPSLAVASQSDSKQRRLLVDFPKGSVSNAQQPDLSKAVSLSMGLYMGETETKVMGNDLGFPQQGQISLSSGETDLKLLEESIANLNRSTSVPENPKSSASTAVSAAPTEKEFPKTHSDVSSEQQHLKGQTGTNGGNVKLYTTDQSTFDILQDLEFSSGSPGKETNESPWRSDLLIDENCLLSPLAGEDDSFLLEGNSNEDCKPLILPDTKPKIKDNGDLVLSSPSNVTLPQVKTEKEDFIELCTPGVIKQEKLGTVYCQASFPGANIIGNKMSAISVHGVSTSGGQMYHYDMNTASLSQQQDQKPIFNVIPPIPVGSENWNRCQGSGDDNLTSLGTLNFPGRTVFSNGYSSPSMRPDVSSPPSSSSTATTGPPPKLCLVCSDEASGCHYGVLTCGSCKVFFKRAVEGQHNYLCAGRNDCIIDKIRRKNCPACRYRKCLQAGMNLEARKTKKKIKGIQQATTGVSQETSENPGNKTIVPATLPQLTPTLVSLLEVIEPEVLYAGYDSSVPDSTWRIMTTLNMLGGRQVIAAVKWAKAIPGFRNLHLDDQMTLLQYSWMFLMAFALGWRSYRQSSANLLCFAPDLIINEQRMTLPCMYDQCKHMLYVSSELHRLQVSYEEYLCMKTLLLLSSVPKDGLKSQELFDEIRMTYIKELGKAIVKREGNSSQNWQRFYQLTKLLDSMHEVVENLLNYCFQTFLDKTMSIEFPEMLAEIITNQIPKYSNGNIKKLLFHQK
Method: Cell lysates from 293 cells overexpressing human GR (glucocorticoid receptor), AR (androgen receptor), MR (mineralocorticoid receptor) or PR (progesterone receptor) are used for competition binding assays to determine Ki values for test compounds. Briefly, competition binding assays are run in a buffer containing 20 mM Hepes, pH 7.6, 0.2 mM EDTA, 75 mM NaCl, 1.5 mM MgCl2, 20% glycerol, 20 mM sodium molybdate, 0.2 mM DTT, 20 ug/ml aprotinin and 20 ug/ml leupeptin, using either 0.3 nM ^3H-dexamethasone for GR binding, 0.36 nM ^3H-methyltrienolone for AR binding, 0.25 nM ^3H-aldosterone for MR binding, or 0.29 nM ^3H-methyltrienolone for PR binding, and either 20 ug 293-GR lysate, 22 ug 293-AR lysate, 20 ug 293-MR lysate or 40 ug 293-PR lysate per well. Competing compounds are added at various concentraions in half-log increments. Non-specific binding is determined in the presence of 500 nM dexamethasone for GR binding, 500 nM aldosterone for MR binding, or 500 nM methyltrienolone for AR and PR binding,. The binding reaction (140 μl) is incubated for overnight at […], then 70 μl of cold charcoal-dextran buffer (containing per 50 ml of assay buffer, 0.75 g of charcoal and 0.25 g of dextran) is added to each reaction. Plates are mixed 8 minutes on an orbital shaker at 4° C. Plates are then centrifuged at 3,000 rpm at 4° C. for 10 minutes. An aliquot of 120 μl of the mix is transferred to another 96-well plate and 175 μl of Wallac Optiphase “Hisafe 3” scintillation fluid is added to each well. Plates are sealed and shaken vigorously on an orbital shaker. After an incubation of 2 hrs, plates are read in a Wallac Microbeta counter. The data is used to calculate an IC50 and % Inhibition at 10 μM. The Kd for ^3H-dexamethasone for GR binding, ^3H-methyltrienolone for AR binding, ^3H-aldosterone for MR binding, or ^3H-methyltrienolone for PR binding, is determined by saturation binding. The IC50 values for compounds are converted to Ki using Cheng-Prusoff equation and the Kd determined by saturation binding assay.

Compound | Ki [nM]
CN(C)CCCC1(c2c[nH]c3c(NS(C)(=O)=O)cccc23)CCc2cc(F)ccc21 (centres unmarked) [Example 43, N-{3-[1-(3-Dimethylamino-propyl)-5-fluoro-indan-1-yl]-1H-indol-7-yl}-methanesulfonamide] | ≤ 10000
